Results reported in ChEMBL document CHEMBL1201862, “PubChem BioAssay data set” (2004).
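Each compound was tested at five concentrations against cells in 96-well plates for 48 hours. At the GI50, growth is halved.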 Active and inactive are the calls of the source. No stated cut-off is given here; in the data, active = GI50 up to about 1.1 µM and inactive = higher.

How the values were obtained:
Experiment in all cases: growth of human tumour cells (NCI), 48 h
A549 = system: A549
CAKI-1 = system: CAKI-1
DU-145 = system: DU-145
EKVX = system: EKVX
HT-29 = system: HT-29
MOLT-4 = system: MOLT-4
Malme-3M = system: Malme-3M
NCI-H226 = system: NCI-H226
NCI-H460 = system: NCI-H460
NCI-H522 = system: NCI-H522
NCI/ADR-RES = system: NCI/ADR-RES
OVCAR-3 = system: OVCAR-3
SF-268 = system: SF-268
SK-MEL-28 = system: SK-MEL-28
SN12C = system: SN12C
SNB-19 = system: SNB-19
SW-620 = system: SW-620
TK-10 = system: TK-10
HOP-92 = system: HOP-92
OVCAR-8 = system: OVCAR-8

SMILES | GI50 (A549) | GI50 (CAKI-1) | GI50 (DU-145) | GI50 (EKVX) | GI50 (HT-29) | GI50 (MOLT-4) | GI50 (Malme-3M) | GI50 (NCI-H226) | GI50 (NCI-H460) | GI50 (NCI-H522) | GI50 (NCI/ADR-RES) | GI50 (OVCAR-3) | GI50 (SF-268) | GI50 (SK-MEL-28) | GI50 (SN12C) | GI50 (SNB-19) | GI50 (SW-620) | GI50 (TK-10) | GI50 (HOP-92) | GI50 (OVCAR-8)
COc1cc2c(cc1OC)C1=C(C=O)c3ccc(OC)c(OC)c3C(O)N1CC2 (stereo not drawn) | 22.7 µM (inactive) | 31.2 µM (inactive) | 28.1 µM (inactive) | 21.6 µM (inactive) | 21.4 µM (inactive) | 12.5 µM (inactive) | 24.5 µM (inactive) | 66.5 µM (inactive) | 30.8 µM (inactive) | 25.1 µM (inactive) | 26.4 µM (inactive) | 39 µM (inactive) | 27.5 µM (inactive) | 31 µM (inactive) | 33.2 µM (inactive) | 26.2 µM (inactive) | 37.2 µM (inactive) | 20.9 µM (inactive) | – | –
COc1cc2cc(C(=O)N3C[C@@H](CCl)c4c3cc(N)c3ccccc43)[nH]c2c(OC)c1OC | 0.00546 µM (active) | 0.004 µM (active) | < 0.01 µM (active) | 0.231 µM (active) | 0.0735 µM (active) | 0.00557 µM (active) | < 0.01 µM (active) | – | 0.00183 µM (active) | 0.00283 µM (active) | 0.00332 µM (active) | 0.00385 µM (active) | 0.119 µM (active) | < 0.01 µM (active) | 0.00914 µM (active) | 0.00665 µM (active) | 0.00201 µM (active) | < 0.01 µM (active) | 0.0048 µM (active) | 0.00451 µM (active)
C=CCOc1ccc(C2c3c(n[nH]c3O)CC(C)(O)C2C(=O)OC)cc1OC (stereo not drawn) | > 100 µM (inactive) | > 100 µM (inactive) | > 100 µM (inactive) | > 100 µM (inactive) | > 100 µM (inactive) | > 100 µM (inactive) | > 100 µM (inactive) | – | > 100 µM (inactive) | > 100 µM (inactive) | > 100 µM (inactive) | > 100 µM (inactive) | > 100 µM (inactive) | > 100 µM (inactive) | > 100 µM (inactive) | > 100 µM (inactive) | > 100 µM (inactive) | > 100 µM (inactive) | > 100 µM (inactive) | > 100 µM (inactive)
S=C1C=C(c2ccccc2)Sc2ccccc2N1 | > 100 µM (inactive) | > 100 µM (inactive) | > 100 µM (inactive) | > 100 µM (inactive) | > 100 µM (inactive) | 30.4 µM (inactive) | > 100 µM (inactive) | > 100 µM (inactive) | > 100 µM (inactive) | 44.5 µM (inactive) | > 100 µM (inactive) | > 100 µM (inactive) | > 100 µM (inactive) | > 100 µM (inactive) | > 100 µM (inactive) | > 100 µM (inactive) | – | > 100 µM (inactive) | – | > 100 µM (inactive)
CC[C@@H]1ON(C)[C@H]2CN(C)C(=O)[C@@H]12 | > 100 µM (inactive) | > 100 µM (inactive) | > 100 µM (inactive) | – | > 100 µM (inactive) | > 100 µM (inactive) | – | > 100 µM (inactive) | > 100 µM (inactive) | > 100 µM (inactive) | > 100 µM (inactive) | > 100 µM (inactive) | – | > 100 µM (inactive) | > 100 µM (inactive) | > 100 µM (inactive) | > 100 µM (inactive) | > 100 µM (inactive) | > 100 µM (inactive) | > 100 µM (inactive)
O=C1CC(C(COCc2ccccc2)OCc2ccccc2)CC(=O)N1 (stereo not drawn) | > 100 µM (inactive) | > 100 µM (inactive) | > 100 µM (inactive) | > 100 µM (inactive) | > 100 µM (inactive) | > 100 µM (inactive) | > 100 µM (inactive) | > 100 µM (inactive) | – | > 100 µM (inactive) | – | > 100 µM (inactive) | > 100 µM (inactive) | > 100 µM (inactive) | > 100 µM (inactive) | > 100 µM (inactive) | > 100 µM (inactive) | > 100 µM (inactive) | > 100 µM (inactive) | > 100 µM (inactive)
Oc1cc(O)c2ccc(-c3ccc(O)c(O)c3)[o+]c2c1 | > 100 µM (inactive) | > 100 µM (inactive) | – | > 100 µM (inactive) | > 100 µM (inactive) | > 100 µM (inactive) | > 100 µM (inactive) | > 100 µM (inactive) | > 100 µM (inactive) | > 100 µM (inactive) | > 100 µM (inactive) | > 100 µM (inactive) | > 100 µM (inactive) | > 100 µM (inactive) | > 100 µM (inactive) | > 100 µM (inactive) | > 100 µM (inactive) | > 100 µM (inactive) | > 100 µM (inactive) | > 100 µM (inactive)
CC12C(=O)OC(=O)C1(C)C1C=CC2O1 (stereo not drawn) | > 100 µM (inactive) | 54.7 µM (inactive) | > 100 µM (inactive) | > 100 µM (inactive) | > 100 µM (inactive) | > 100 µM (inactive) | 67.6 µM (inactive) | 21.7 µM (inactive) | > 100 µM (inactive) | > 100 µM (inactive) | > 100 µM (inactive) | 30.3 µM (inactive) | 59.7 µM (inactive) | > 100 µM (inactive) | > 100 µM (inactive) | 37.8 µM (inactive) | > 100 µM (inactive) | 78.7 µM (inactive) | – | > 100 µM (inactive)
CC(C)(C)[Si](C)(C)OC1(CCc2ccccc2OS(=O)(=O)C(F)(F)F)CCCC=C1COCc1ccccc1 (stereo not drawn) | 0.325 µM (active) | > 100 µM (inactive) | > 100 µM (inactive) | > 100 µM (inactive) | – | 5.14 µM (inactive) | 0.202 µM (active) | 46.1 µM (inactive) | – | 2.79 µM (inactive) | > 100 µM (inactive) | > 100 µM (inactive) | – | > 59.6 µM (inactive) | – | – | 58.1 µM (inactive) | > 100 µM (inactive) | – | –
Cc1cc2c(cc1C)[n+]([O-])c(C(=O)N1CCN(c3ccc([N+](=O)[O-])cc3)CC1)c(C)[n+]2[O-] | 82.2 µM (inactive) | > 100 µM (inactive) | 29.5 µM (inactive) | 24.4 µM (inactive) | > 100 µM (inactive) | > 100 µM (inactive) | > 100 µM (inactive) | – | 22.9 µM (inactive) | 75.3 µM (inactive) | > 100 µM (inactive) | > 100 µM (inactive) | 19 µM (inactive) | > 100 µM (inactive) | 63.7 µM (inactive) | 64.9 µM (inactive) | > 100 µM (inactive) | 18.1 µM (inactive) | 23.6 µM (inactive) | 27.5 µM (inactive)
COc1cc(/C=C2\C[C@H]3[C@@H]4CCc5cc(O)ccc5[C@H]4CC[C@]3(C)C2=O)cc(OC)c1OC | 15.6 µM (inactive) | 11.4 µM (inactive) | 3.69 µM (inactive) | 10.1 µM (inactive) | 12.5 µM (inactive) | 11.1 µM (inactive) | 2.53 µM (inactive) | 6.05 µM (inactive) | 45.2 µM (inactive) | 1.83 µM (inactive) | 16.8 µM (inactive) | 11.4 µM (inactive) | 8.73 µM (inactive) | 11.8 µM (inactive) | 15.1 µM (inactive) | 19.9 µM (inactive) | 16.7 µM (inactive) | 8.81 µM (inactive) | – | 15.5 µM (inactive)
